Here are results for five compounds from ChEMBL document CHEMBL1949595, “Fluorinated ΔF508-CFTR correctors and potentiators for PET imaging” (Bioorg Med Chem Lett, 2012).

pEC50: −log10 of the molar value.

The target of assay [1] is Cystic fibrosis transmembrane conductance regulator (Homo sapiens, UniProt P13569, F508DEL). Put plainly: Corrector activity at human CFTR delta F508 mutant expressed in rat FRT cells coexpressing fluorescent protein YFP-H148Q/1152L by fluorescence assay. The class given is cell-based.
Sequence of Cystic fibrosis transmembrane conductance regulator (P13569 as listed by the source): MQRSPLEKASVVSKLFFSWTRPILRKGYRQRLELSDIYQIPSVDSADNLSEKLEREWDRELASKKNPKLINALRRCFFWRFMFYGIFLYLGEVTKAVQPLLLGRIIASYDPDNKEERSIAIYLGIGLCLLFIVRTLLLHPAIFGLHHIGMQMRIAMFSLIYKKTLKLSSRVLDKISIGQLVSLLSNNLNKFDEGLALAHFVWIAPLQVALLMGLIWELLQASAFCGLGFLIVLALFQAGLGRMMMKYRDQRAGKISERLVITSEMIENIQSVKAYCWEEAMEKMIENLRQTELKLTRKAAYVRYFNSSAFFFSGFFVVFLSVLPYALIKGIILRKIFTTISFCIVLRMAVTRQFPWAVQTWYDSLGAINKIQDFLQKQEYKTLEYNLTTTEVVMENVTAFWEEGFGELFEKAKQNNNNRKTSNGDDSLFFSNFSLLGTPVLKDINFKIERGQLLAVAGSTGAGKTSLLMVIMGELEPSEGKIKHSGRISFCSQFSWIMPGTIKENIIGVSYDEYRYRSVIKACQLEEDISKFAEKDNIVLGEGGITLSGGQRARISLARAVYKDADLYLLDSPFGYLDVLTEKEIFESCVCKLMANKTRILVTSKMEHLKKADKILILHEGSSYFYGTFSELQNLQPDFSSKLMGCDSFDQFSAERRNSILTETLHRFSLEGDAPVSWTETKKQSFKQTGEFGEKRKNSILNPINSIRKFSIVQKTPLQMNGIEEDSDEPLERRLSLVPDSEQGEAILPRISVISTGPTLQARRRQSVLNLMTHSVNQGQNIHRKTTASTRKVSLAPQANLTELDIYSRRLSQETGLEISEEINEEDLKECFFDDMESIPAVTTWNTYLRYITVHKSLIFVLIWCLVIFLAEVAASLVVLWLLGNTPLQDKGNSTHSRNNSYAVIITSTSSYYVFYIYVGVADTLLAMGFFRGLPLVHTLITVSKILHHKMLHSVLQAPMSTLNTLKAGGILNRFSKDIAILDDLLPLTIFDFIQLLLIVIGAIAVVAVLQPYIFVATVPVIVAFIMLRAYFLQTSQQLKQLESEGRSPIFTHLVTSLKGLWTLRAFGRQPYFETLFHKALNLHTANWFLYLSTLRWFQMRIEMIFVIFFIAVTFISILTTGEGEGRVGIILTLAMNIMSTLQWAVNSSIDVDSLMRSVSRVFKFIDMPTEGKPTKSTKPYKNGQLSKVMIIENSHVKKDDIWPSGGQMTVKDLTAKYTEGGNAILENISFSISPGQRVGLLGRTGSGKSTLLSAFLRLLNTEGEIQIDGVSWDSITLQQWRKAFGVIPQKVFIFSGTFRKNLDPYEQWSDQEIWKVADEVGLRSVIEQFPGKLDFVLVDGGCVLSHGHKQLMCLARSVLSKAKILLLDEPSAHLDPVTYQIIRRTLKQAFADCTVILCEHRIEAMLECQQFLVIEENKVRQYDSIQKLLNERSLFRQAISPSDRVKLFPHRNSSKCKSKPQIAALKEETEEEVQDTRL
Assay [2] is described as follows: Potentiation activity at human CFTR delta F508 mutant-mediated iodine flux expressed in rat FRT cells coexpressing fluorescent protein YFP-H148Q/1152L by fluorescence assay. It counts as cell-based.

By pEC50 is commonly meant the negative decadic logarithm of the EC50, by convention in mol/L. Turning to `Cc1nc(NC(=O)c2ccc([19F])cc2)sc1-c1csc(Nc2cc(N(C)C)ccc2Cl)n1`, in assay [1], the pEC50 is 5.85.
Still for that read-out and setting: to `COc1ccc(Cl)cc1Nc1nc(-c2sc(NC(=O)c3ccc([19F])cc3)nc2C)cs1` belongs 5.85.
As for `CN(C(=O)Cc1c[nH]c2ccccc12)[C@H](C(=O)Nc1ccc(-n2cc(CCC[19F])nn2)cc1)c1ccccc1`, the negative-log EC50 (pEC50) in assay [2] is 5.96.
Take `CN(C(=O)Cc1c[nH]c2ccccc12)[C@H](C(=O)Nc1ccc([19F])cc1)c1ccccc1`: in assay [2], the pEC50 was 7.05.
For the compound `COc1ccc(Cl)cc1Nc1nc(-c2sc(NC(=O)c3ccccc3)nc2C)cs1`, the pEC50 in assay [1] was 5.64.
